Test results taken from patent US11617708B2, “Cosmetic composition capable of strengthening epidermal tight junctions for the prevention and/or treatment of atopic dermatitis” (NAOS INSTITUTE OF LIFE SCIENCE, priority 2020, dated 2023).

System: claudin-1
Assay: Expression of claudin-1 by in situ immunolabelling in an in vitro cell model of atopic dermatitis (calcium-differentiated keratinocytes inhibited by alarmins)
Assay type: cell-based, human
Description: • cell type: normal human epidermal keratinocytes (NHEK; reference: Bioalternatives K34 1), used at 3rd passage—culture conditions: 37° C., 5% CO2 • culture medium: Keratinocyte-SFM complemented with Epidermal Growth Factor (or EGF) at a concentration of 0.25 ng/mL, pituitary extract (PE) at a concentration of 25 μg/mL and gentamycin at a concentration of 25 μg/mL • assay medium used for this example: Keratinocyte-SFM complemented with gentamycin at a concentration of 25 μg/mL. […]
For each condition, the analysis was carried out from 30 image quantifications (n=30) except for the control conditions produced from 60 image quantifications (n=60). A first evaluation of the results was carried out by taking all of the quantifications into account, then a second solely with the results with replicated cultures, i.e. with 3 replications (n=3), except for the control conditions which were carried out with 6 replications (n=6). […]
Labelling was quantified by measuring the intensity of fluorescence of the proteins with respect to the total number of cells identified by staining with bis-benzimide (integration of digital data by the Developer Toolbox 1.5 software, GE Health Care).
The intergroup comparisons were carried out with the aid of the bilateral unpaired Student t-assay. […] However, for n<5, the calculated data were provided by way of indication only. […]

| SMILES | expression of claudin-1 after differentiation with CaCl2 (NHEK, CaCl2 0.75 mM, without alarmins, versus not stimulated/not differentiated control) | effect on the expression of claudin-1 (% with respect to T+, inhibited control = 100%) (NHEK differentiated with CaCl2 0.75 mM, compounds 1 h before alarmins (histamine 50 μM, IL-33 100 ng/mL, IL-1β 100 ng/mL), 72 h, arginine 0.02-0.2%, glycosylceramides 0.0003-0.003%, FIG. 1) |
| --- | --- | --- |
| [Ca+2].[Cl-].[Cl-] [CaCl2] | induced an increase in the expression of the analysed tight junctions protein (claudin-1) | – |
| N=C(N)NCCC[C@H](N)C(=O)O [arginine] | – | significantly reversed the inhibiting effect of the mixture of alarmins on the expression of claudin-1 |
